This passage reports IC50 results from patent US20200172529A1, “Chemical Compound, Pharmaceutical Composition Thereof, and Use and Application Thereof” (Beijing Hanmi Pharm. Co., Ltd., priority 2017, published 2020).

Common to all, as to format: biochemical
One assay deals with T1, TYK2 kinase (Homo sapiens, UniProt P29597).
T1 construct: purchased Life Technologies PR8440C
The experiment in a line: Inhibition assay of TYK2 kinase activity (ADP-Glo Kinase Assay). On the procedure: Determination of inhibition of TYK2 kinase activity by the examples compounds disclosed herein
Inhibition assay of TYK2 kinase activity: the method of ADP-Glo™ Kinase Assay (Promega, V9102) was used to determine the inhibitory activity of the test compounds against TYK2 kinase.
TYK2 kinase (purchased from Life Technologies, article number: PR8440C) was diluted to the 2-fold final concentration (0.8 ng/mL) using reaction buffer (40 mM Tris-HCl, pH 7.5; 20 mM MgCl2; 0.1 mg/mL BSA; 1 mM DTT), and added to a 384-well plate at 5 μL/well. The test drugs were subjected to a 10-fold gradient dilution, from 10 μM, to obtain 6 concentrations, and added to experimental wells of the 384-well plate at 2.5 μL/well. 5 μL of water and 2.5 μL of buffer were added to negative control wells. 5 μL of TYK2 and 2.5 μL of water were added to positive control wells. After incubating for 10 minutes at room temperature, the substrate ATP and polyE4Y1 (Sigma, P0275) were added at 2.5 μL/well, mixed well, and then reacted at room temperature for 60 minutes. After the reaction was completed, the kinase activity was detected according to the instruction of the kit. First, the ADP-Glo reaction reagent was added at 10 μL/well, mixed well, and reacted at room temperature for 40 minutes. The kinase detection reagent was then added at 20 μL/well, mixed well, and then reacted at room temperature for 30 minutes. The detection was then performed and the IC50s of test drugs were calculated.

The target of another assay is JAK1 kinase (Homo sapiens, UniProt P23458). The assay is described as follows: Inhibition assay of JAK1 kinase activity (ADP-Glo Kinase Assay). The source says:
Inhibition assay of JAK1 kinase activity: the method in ADP-Glo™ Kinase Assay (Promega, V9102) was used to determine the inhibitory activity of the test compounds against JAK1 kinase.
(ADP-Glo first removes unused ATP, then detects ADP through luciferase.)

The target of a further assay is JAK2 kinase (Homo sapiens, UniProt O60674). The assay is described as follows: Inhibition assay of JAK2 kinase activity (ADP-Glo Kinase Assay). The source says: Inhibition assay of JAK2 kinase activity: the method in ADP-Glo™ Kinase Assay (Promega, V9102) was used to determine the inhibitory activity of the test compounds against JAK2 kinase.
Chain of JAK2 kinase (O60674 whole entry): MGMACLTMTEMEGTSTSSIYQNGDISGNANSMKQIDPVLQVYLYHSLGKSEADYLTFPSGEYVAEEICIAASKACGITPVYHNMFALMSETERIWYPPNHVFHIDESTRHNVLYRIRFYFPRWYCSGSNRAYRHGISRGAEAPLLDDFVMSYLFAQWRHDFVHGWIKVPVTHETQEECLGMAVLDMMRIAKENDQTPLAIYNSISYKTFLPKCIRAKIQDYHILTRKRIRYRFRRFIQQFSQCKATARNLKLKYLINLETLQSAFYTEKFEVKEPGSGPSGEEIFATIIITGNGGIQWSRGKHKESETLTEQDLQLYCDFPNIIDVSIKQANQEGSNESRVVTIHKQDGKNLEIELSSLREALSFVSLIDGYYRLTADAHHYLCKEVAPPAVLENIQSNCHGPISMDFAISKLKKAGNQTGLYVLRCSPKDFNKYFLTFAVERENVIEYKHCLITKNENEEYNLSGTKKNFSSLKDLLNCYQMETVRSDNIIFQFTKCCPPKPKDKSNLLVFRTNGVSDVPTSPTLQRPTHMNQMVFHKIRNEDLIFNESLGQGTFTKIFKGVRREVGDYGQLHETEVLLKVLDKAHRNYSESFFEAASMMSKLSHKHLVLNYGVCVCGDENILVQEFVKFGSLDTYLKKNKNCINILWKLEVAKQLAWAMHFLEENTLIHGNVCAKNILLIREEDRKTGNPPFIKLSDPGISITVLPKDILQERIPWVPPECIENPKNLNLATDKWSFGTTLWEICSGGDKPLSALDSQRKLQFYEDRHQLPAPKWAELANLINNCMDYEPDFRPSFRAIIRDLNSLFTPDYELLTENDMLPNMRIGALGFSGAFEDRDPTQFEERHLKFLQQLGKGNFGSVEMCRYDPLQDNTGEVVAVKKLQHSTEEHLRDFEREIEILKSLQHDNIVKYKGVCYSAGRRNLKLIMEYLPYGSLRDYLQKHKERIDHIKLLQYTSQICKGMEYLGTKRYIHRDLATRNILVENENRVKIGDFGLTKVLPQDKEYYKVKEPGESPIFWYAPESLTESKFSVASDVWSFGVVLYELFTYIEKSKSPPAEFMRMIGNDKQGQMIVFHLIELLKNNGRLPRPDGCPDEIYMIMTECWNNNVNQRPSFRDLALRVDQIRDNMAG
For another assay, the target named is T2, JAK3 kinase (Homo sapiens, UniProt P52333).
T2 sequence (P52333 1-1124): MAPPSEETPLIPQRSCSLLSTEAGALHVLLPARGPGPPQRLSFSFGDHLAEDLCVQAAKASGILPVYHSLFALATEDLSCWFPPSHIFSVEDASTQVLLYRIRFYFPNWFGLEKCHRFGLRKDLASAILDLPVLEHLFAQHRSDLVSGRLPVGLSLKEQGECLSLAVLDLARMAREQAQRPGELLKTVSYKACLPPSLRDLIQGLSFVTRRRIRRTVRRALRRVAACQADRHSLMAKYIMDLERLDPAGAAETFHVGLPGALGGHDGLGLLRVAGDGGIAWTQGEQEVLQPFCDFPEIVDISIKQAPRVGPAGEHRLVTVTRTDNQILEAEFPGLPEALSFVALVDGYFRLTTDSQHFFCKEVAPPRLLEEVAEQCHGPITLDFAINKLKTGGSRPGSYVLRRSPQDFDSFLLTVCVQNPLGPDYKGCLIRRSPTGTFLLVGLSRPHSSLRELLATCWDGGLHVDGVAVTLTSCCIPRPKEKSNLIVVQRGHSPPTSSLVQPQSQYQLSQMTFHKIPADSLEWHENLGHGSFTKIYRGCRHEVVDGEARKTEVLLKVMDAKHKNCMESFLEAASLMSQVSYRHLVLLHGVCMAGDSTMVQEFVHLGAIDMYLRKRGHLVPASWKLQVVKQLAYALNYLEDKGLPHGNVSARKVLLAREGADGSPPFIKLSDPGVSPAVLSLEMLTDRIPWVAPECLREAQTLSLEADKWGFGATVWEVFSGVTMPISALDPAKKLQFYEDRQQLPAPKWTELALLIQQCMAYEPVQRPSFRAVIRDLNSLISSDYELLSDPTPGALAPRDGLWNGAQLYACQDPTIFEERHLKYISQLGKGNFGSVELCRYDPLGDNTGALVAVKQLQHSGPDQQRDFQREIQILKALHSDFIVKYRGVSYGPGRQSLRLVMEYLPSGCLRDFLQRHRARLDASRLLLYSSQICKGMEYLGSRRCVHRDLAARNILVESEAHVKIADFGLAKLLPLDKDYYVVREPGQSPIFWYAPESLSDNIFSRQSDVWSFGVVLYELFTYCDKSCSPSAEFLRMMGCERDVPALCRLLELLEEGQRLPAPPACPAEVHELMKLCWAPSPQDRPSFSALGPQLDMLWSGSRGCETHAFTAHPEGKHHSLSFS
The assay is described as follows: Inhibition assay of JAK3 kinase activity (ADP-Glo Kinase Assay). The source says: Inhibition assay of JAK3 kinase activity: the method in ADP-Glo™ Kinase Assay (Promega, V9102) was used to determine the inhibitory activity of the test compounds against JAK3 kinase.

The IC50 is the point on the concentration scale where inhibition reaches its midpoint. A lower IC50 goes with inhibition by little substance.

A value given as a limit tells only on which side of the number the result lay.

T1 sequence (P29597 whole entry): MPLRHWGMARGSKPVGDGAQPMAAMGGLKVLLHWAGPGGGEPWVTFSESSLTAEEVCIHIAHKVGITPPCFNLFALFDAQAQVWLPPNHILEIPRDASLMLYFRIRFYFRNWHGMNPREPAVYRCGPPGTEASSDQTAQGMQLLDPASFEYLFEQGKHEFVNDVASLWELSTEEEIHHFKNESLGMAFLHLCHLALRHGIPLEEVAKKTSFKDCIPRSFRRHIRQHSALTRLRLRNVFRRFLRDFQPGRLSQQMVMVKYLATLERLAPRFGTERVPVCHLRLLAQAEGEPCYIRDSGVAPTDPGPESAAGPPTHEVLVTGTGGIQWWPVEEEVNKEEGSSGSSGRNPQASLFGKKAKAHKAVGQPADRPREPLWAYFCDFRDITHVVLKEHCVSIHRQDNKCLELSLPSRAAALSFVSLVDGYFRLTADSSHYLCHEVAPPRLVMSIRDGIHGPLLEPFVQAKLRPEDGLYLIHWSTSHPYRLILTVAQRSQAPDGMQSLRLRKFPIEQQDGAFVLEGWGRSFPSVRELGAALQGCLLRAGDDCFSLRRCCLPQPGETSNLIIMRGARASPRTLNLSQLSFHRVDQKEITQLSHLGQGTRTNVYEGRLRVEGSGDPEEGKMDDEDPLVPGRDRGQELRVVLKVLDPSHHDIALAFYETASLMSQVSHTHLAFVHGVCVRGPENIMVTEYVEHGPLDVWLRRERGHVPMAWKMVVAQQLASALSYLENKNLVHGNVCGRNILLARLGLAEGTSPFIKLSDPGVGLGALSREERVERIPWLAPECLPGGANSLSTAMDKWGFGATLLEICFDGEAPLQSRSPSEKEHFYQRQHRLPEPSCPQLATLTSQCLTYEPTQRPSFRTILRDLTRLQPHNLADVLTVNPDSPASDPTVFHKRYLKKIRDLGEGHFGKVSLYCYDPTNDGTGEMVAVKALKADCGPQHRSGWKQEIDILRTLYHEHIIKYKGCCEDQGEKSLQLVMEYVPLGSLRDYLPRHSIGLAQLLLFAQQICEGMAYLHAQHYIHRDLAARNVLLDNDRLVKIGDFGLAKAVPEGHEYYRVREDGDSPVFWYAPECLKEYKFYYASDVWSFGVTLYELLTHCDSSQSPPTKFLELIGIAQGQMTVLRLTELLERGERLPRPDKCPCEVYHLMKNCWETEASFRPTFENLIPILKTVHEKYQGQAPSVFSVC
Chain of JAK1 kinase (P23458 whole entry): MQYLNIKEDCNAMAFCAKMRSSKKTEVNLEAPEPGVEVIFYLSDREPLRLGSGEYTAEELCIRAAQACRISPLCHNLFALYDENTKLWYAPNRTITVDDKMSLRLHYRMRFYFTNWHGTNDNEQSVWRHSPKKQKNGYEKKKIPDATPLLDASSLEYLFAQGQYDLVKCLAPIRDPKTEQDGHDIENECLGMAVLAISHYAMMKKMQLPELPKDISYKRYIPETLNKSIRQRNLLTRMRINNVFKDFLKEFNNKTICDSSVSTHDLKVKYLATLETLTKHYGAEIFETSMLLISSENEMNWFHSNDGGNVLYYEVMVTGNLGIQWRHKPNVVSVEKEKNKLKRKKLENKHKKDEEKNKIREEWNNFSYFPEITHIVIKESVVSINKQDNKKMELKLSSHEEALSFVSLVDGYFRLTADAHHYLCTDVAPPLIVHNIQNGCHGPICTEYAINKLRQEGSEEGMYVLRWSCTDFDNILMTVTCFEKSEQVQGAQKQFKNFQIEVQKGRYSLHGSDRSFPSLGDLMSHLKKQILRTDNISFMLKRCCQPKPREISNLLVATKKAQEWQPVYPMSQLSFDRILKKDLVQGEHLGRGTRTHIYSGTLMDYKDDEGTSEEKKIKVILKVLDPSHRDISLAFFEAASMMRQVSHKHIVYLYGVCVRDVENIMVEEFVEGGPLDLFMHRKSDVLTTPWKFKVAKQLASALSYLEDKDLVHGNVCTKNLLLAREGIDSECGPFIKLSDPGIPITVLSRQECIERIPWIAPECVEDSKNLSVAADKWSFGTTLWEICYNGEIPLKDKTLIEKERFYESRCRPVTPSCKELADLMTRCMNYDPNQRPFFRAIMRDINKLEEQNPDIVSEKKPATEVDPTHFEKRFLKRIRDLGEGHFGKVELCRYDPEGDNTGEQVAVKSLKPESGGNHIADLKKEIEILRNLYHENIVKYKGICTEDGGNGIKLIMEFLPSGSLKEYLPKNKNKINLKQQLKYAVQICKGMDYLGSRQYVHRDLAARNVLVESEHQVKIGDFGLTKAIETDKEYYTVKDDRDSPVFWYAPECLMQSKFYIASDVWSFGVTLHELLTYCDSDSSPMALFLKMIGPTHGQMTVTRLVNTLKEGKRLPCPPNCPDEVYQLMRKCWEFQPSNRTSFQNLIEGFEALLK

In the case of `NC(=O)c1cnc(Nc2ccc3c(c2)NCC(O)CO3)nc1NC1CC1` (stereo not drawn) [Example 2, 4-(cyclopropylamino)-2-((3-hydroxy-2,3,4,5-tetrahydro-benzo[b][1,4]oxazepin-7-yl)amino)pyrimidin-5-carboxamide], the IC50 is less than 10 nM at TYK2 kinase, less than 10 nM on JAK1 kinase, 10 to 100 nM at JAK2 kinase and less than 10 nM on JAK3 kinase.
`NC(=O)c1cnc(Nc2ccc3c(c2)NC[C@H](O)CO3)nc1Nc1ccc2[nH]ccc2c1` [Example 34, 4-((1H-indol-5-yl)amino)-2-(((S)-2,3,4,5-tetrahydro-3-hydroxybenzo[b][1,4]oxazepin-7-yl)amino)pyrimidin-5-carboxamide]: the IC50 against TYK2 kinase, at JAK1 kinase, at JAK2 kinase and on JAK3 kinase was less than 10 nM throughout.
As to `NC(=O)c1cnc(Nc2ccc3c(c2)NC[C@H](O)CO3)nc1NC1C2CC3CC1CC(O)(C3)C2` (stereo partly drawn) [Example 38, 4-((1-hydroxyadamantan-4-yl)amino)-2-(((S)-2,3,4,5-tetrahydro-3-hydroxybenzo[b][1,4]oxazepin-7-yl)amino)pyrimidin-5-carboxamide], the IC50 against TYK2 kinase, at JAK1 kinase, against JAK2 kinase and against JAK3 kinase was less than 10 nM in each case.
For `COC12CC3CC(C1)C(Nc1nc(Nc4ccc5c(c4)NC[C@H](O)CO5)ncc1C(N)=O)C(C3)C2` (stereo partly drawn) [Example 46, 4-((5-methoxyadamantan-2-yl)amino)-2-(((S)-2,3,4,5-tetrahydro-3-hydroxybenzo[b][1,4]oxazepin-7-yl)amino)pyrimidin-5-carboxamide], the IC50 against TYK2 kinase, on JAK1 kinase, against JAK2 kinase and against JAK3 kinase was less than 10 nM throughout.
`NC(=O)c1cnc(Nc2ccc3c(c2)NC[C@H](O)CO3)nc1NCC1CCCCC1` [Example 50, 4-((cyclohexylmethyl)amino)-2-(((S)-2,3,4,5-tetrahydro-3-hydroxybenzo[b][1,4]oxazepin-7-yl)amino)pyrimidin-5-carboxamide]: the IC50 is less than 10 nM against TYK2 kinase, 10 to 100 nM at JAK1 kinase, less than 10 nM against JAK2 kinase and less than 10 nM against JAK3 kinase.
With `NC(=O)c1cnc(Nc2ccc3c(c2)NC[C@H](O)CO3)nc1NCCCO` [Example 51, 4-((3-hydroxypropyl)amino)-2-(((S)-2,3,4,5-tetrahydro-3-hydroxybenzo[b][1,4]oxazepin-7-yl)amino)pyrimidin-5-carboxamide], the IC50 is less than 10 nM against TYK2 kinase, 10 to 100 nM on JAK1 kinase, 10 to 100 nM against JAK2 kinase and 10 to 100 nM against JAK3 kinase.
As to `CC(C)(C)Nc1nc(Nc2ccc3c(c2)NC[C@H](O)CO3)ncc1C(N)=O` [Example 53, 4-(tert-butylamino)-2-(((S)-2,3,4,5-tetrahydro-3-hydroxybenzo[b][1,4]oxazepin-7-yl)amino)pyrimidin-5-carboxamide], the IC50 is less than 10 nM against TYK2 kinase, 10 to 100 nM against JAK1 kinase, 10 to 100 nM against JAK2 kinase and 10 to 100 nM against JAK3 kinase.
Consider `NC(=O)c1cnc(Nc2ccc3c(c2)NC[C@H](O)CO3)nc1NC1CC(F)(F)C1` [Example 54, 4-((3,3-difluorocyclobutyl)amino)-2-(((S)-2,3,4,5-tetrahydro-3-hydroxybenzo[b][1,4]oxazepin-7-yl)amino)pyrimidin-5-carboxamide], for which the IC50 at TYK2 kinase was less than 10 nM; against JAK1 kinase, 10 to 100 nM; against JAK2 kinase, 10 to 100 nM; against JAK3 kinase, 10 to 100 nM.
In the case of `CC(Nc1nc(Nc2ccc3c(c2)NC[C@H](O)CO3)ncc1C(N)=O)C1CC1` (stereo partly drawn) [Example 55, 4-((1-cyclopropylethyl)amino)-2-(((S)-2,3,4,5-tetrahydro-3-hydroxybenzo[b][1,4]oxazepin-7-yl)amino)pyrimidin-5-carboxamide], the IC50 against TYK2 kinase, at JAK1 kinase, on JAK2 kinase and against JAK3 kinase was less than 10 nM each time.
`NC(=O)c1cnc(Nc2ccc3c(c2)NC[C@H](O)CO3)nc1NCC1CCC1` [Example 56, 4-((cyclobutylmethyl)amino)-2-(((S)-2,3,4,5-tetrahydro-3-hydroxybenzo[b][1,4]oxazepin-7-yl)amino)pyrimidin-5-carboxamide]: the half-inhibitory concentration (IC50) on TYK2 kinase, against JAK1 kinase, against JAK2 kinase and at JAK3 kinase was less than 10 nM in each case.
With `NC(=O)c1cnc(Nc2ccc3c(c2)NC[C@H](O)CO3)nc1NCCN1CCOCC1` [Example 61, 4-((2-morpholinoethyl)amino)-2-(((S)-2,3,4,5-tetrahydro-3-hydroxybenzo[b][1,4]oxazepin-7-yl)amino)pyrimidin-5-carboxamide], the IC50 is less than 10 nM at TYK2 kinase, 10 to 100 nM against JAK1 kinase, 10 to 100 nM against JAK2 kinase and 10 to 100 nM on JAK3 kinase.
In the case of `NC(=O)c1cnc(Nc2ccc3c(c2)NC[C@H](O)CO3)nc1NC1CCOC1` (stereo partly drawn) [Example 64, 4-(tetrahydrofuran-3-ylamino)-2-(((S)-2,3,4,5-tetrahydro-3-hydroxybenzo[b][1,4]oxazepin-7-yl)amino)pyrimidin-5-carboxamide], the IC50 against TYK2 kinase is less than 10 nM; against JAK1 kinase it was 10 to 100 nM; against JAK2 kinase, 10 to 100 nM; at JAK3 kinase, 10 to 100 nM.
Regarding `C#CCNc1nc(Nc2ccc3c(c2)NC[C@H](O)CO3)ncc1C(N)=O` [Example 65, 4-(prop-2-yn-1-ylamino)-2-(((S)-2,3,4,5-tetrahydro-3-hydroxybenzo[b][1,4]oxazepin-7-yl)amino)pyrimidin-5-carboxamide], the IC50 is less than 10 nM at TYK2 kinase, less than 10 nM against JAK1 kinase, 10 to 100 nM on JAK2 kinase and 10 to 100 nM against JAK3 kinase.
On to `NC(=O)c1cnc(Nc2ccc3c(c2)NCCCO3)nc1NC1CC1` [Example 77, 4-(cyclopropylamino)-2-((2,3,4,5-tetrahydrobenzo[b][1,4]oxazepin-7-yl)amino)pyrimidin-5-carboxamide], for which the IC50 at TYK2 kinase was less than 10 nM; at JAK3 kinase, 10 to 100 nM.
As to `CCCCO[C@H]1CNc2cc(Nc3ncc(C(N)=O)c(NC4CC4)n3)ccc2OC1` [Example 81, 4-(cyclopropylamino)-2-(((S)-2,3,4,5-tetrahydro-3-butoxybenzo[b][1,4]oxazepin-7-yl)amino)pyrimidin-5-carboxamide], the IC50 against TYK2 kinase was less than 10 nM; against JAK1 kinase, 10 to 100 nM; on JAK3 kinase, 10 to 100 nM.
As to `CCCO[C@@H]1CNc2cc(Nc3ncc(C(N)=O)c(NC4CC4)n3)ccc2OC1` [Example 84, 4-(cyclopropylamino)-2-(((R)-2,3,4,5-tetrahydro-3-propoxybenzo[b][1,4]oxazepin-7-yl)amino)pyrimidin-5-carboxamide], the IC50 on TYK2 kinase, against JAK1 kinase and at JAK2 kinase was 10 to 100 nM in each case.
